Values quoted from earlier work as cited in patent US20200171149A1, “COMBINATION THERAPY FOR NON-SMALL CELL LUNG CANCER POSITIVE FOR EGFR MUTATION” (MEDIMMUNE LIMITED, priority 2015, published 2020).

Key:
[1] = test system: EGFR-TKI sensitizing and resistance T790M mutations; conditions: preclinical models; Janne et al., J Clin Oncol 2014
tumor = conditions: patients
human T-cell activation = conditions: in vitro
xenograft model = conditions: T-cell dependent mechanism

In the case of `C=CC(=O)Nc1cc(Nc2nccc(-c3cn(C)c4ccccc34)n2)c(OC)cc1N(C)CCN(C)C` [AZD9291, N-(2-((2-(dimethylamino)ethyl)(methyl)amino)-4-methoxy-5-((4-(1-methyl-1H-indol-3-yl)pyrimidin-2-yl)amino)phenyl)acrylamide], the “Effectiveness against EGFR mutations” value [1] is listed as “effective against both EGFR-TKI sensitizing and resistance T790M mutations”.

For `COc1cc2ncnc(Nc3ccc(F)c(Cl)c3)c2cc1OCCCN1CCOCC1` [gefitinib, N-(3-chloro-4-fluorophenyl)-7-methoxy-6-(3-morpholinopropoxy)quinazolin-4-amine], the Tumor regression (tumor) is given as “tumor regression in some patients”.

B1: MEDI4736: anti-PD-L1 antibody selective for PD-L1; light chain variable SEQ ID NO: 1, heavy chain variable SEQ ID NO: 2 (antibody, V domains shown)
VH: EVQLVESGGGLVQPGGSLRLSCAASGFTFSRYWMSWVRQAPGKGLEWVANIKQDGSEKYYVDSVKGRFTISRDNAKNSLYLQMNSLRAEDTAVYYCAREGGWFGELAFDYWGQGTLVTVSS
VL: EIVLTQSPGTLSLSPGERATLSCRASQRVSSSYLAWYQQKPGQAPRLLIYDASSRATGIPDRFSGSGSGTDFTLTISRLEPEDFAVYYCQQYGSLPWTFGQGTKVEIK
In the case of B1, the “Relief of PD-L1-mediated suppression of human T-cell activation” value (human T-cell activation) is given as “can relieve PD-L-mediated suppression of human T-cell activation” and the Tumor growth inhibition (xenograft model) is given as “inhibits tumor growth”.
